Laboratory results taken from patent US20240360067A1, “DERIVATIVES OF ITACONIC ACID AND THEIR USE AS ANTI-INFLAMMATORY AGENTS” (Sitryx Therapeutics Limited, priority 2021, published 2024).

Key:
IL-1β = experiment: THP-1 AlphaLISA IL-1β cytokine assay (PMA-differentiated THP-1, LPS then nigericin); type: cell-based; details: 30 min pre-incubation, LPS 24 hr, nigericin 1 hour
Description: (§1) Measuring Inhibitory Effects on IL-1β, and IL-6 Cytokine Output from THP-1s
(§2) The cytokine inhibition profiles of compounds of formula (I) were determined in a differentiated THP-1 cell assay. All assays were performed in RPMI-1640 growth medium (Gibco), supplemented with 10% fetal bovine serum (FBS; Gibco), 1% penicillin-streptomycin and 1% sodium pyruvate unless specified otherwise. The IL-1β and IL-6 cytokine inhibition assays were each run in a background of differentiated THP-1 cells as described below. All reagents described were from Sigma-Aldrich unless specified otherwise. Compounds were prepared as 10 mM DMSO stocks.
(§3) THP-1 cells were expanded as a suspension up to 80% confluence in appropriate growth medium. Cells were harvested, suspended, and treated with an appropriate concentration of phorbol 12-myristate 13-acetate (PMA) over a 72 hr period (37° C./5% CO2).
(§4) Following 72 hrs of THP-1 cell incubation, cellular medium was removed and replaced with fresh growth media containing 1% of FBS. Working concentrations of compounds were prepared separately in 10% FBS treated growth medium and pre-incubated with the cells for 30 minutes (37° C./5% CO2). Following the 30 minute compound pre-incubation, THP-1s were treated with an appropriate concentration of LPS and the THP-1s were subsequently incubated for a 24 hr period (37° C./5% CO2). An appropriate final concentration of Nigericin was then dispensed into the THP-1 plates and incubated for 1 hour (37° C./5% CO2) before THP-1 supernatants were harvested and collected in separate polypropylene 96-well holding plates.
(§5) Reagents from each of the IL-1β and IL-6 commercial kits (Perkin Elmer) were prepared and run according to the manufacturer's instructions. Subsequently, fluorescence signal detection in a microplate reader was measured (EnVision® Multilabel Reader, Perkin Elmer).
(§6) Percentage inhibition was calculated per cytokine by normalizing the sample data to the high and low controls used within each plate (+/−LPS respectively).

[1] = Hepatocyte stability assay, human; type: in vitro ADME; details: 10 μM compound, 0.5×10^6 cells/mL, 60 min; for half-life at 10 μM: cryo-preserved hepatocytes, read-out: T½
From the text: (§7) Defrosted cryo-preserved hepatocytes (viability >70%) were used to determine the metabolic stability of a compound via calculation of intrinsic clearance (CIint; a measure of the removal of a compound from the liver in the absence of blood flow and cell binding). Clearance data are particularly important for in vitro work as they can be used in combination with in vivo data to predict the half-life and oral bioavailability of a drug.
(§8) The metabolic stability in hepatocytes assay involved a time-dependent reaction using both positive and negative controls. The cells must be pre-incubated at 37° C. then spiked with test compound (and positive control); samples taken at pre-determined time intervals were analysed to monitor the change in concentration of the initial drug compound over 60 minutes. A buffer incubation reaction (with no hepatocytes present) acted as a negative control and two cocktail solutions, containing compounds with known high and low clearance values (verapamil/7-hydroxycoumarin and propranolol/diltiazem), acted as positive controls. • 1. The assay was run with a cell concentration of 0.5×10^6 cells/mL in Leibovitz buffer. • 2. All compounds and controls were run in duplicate. • 3. Compound concentration was 10 μM. • 4. All compounds and controls were incubated with both cells and buffer to show turnover is due to hepatic metabolism. • 5. All wells on the incubation plate had 326.7 μL of either cells or buffer added. • 6. Prior to assay, cell and buffer-only incubation plates were preincubated for 10 mins at 37° C. • 7. The assay was initiated by adding compounds, 3.3 μL of 1 mM in 10% DMSO-90% Buffer; final DMSO concentration is 0.1%. • 8. Samples were taken at regular timepoints (0, 5, 10, 20, 40, 60 min) until 60 mins. • 9. Sample volume was 40 μL and added to 160 μL of crash solvent (acetonitrile with internal standard) and stored on ice. • 10. At the end of the assay, the crash plates were centrifuged at 3500 rpm for 20 mins at 4° C. • 11. 80 μL of clear supernatant was removed and mixed with 80 μL of deionised water before being analysed by LC-MS/MS.
(§9) Raw LC-MS/MS data were exported to, and analysed in, Microsoft Excel for determination of intrinsic clearance. The percentage remaining of a compound was monitored using the peak area of the initial concentration as 100%. Intrinsic clearance and half-life values were calculated using a graph of the natural log of percentage remaining versus the time of reaction in minutes.

IL-6 = experiment: THP-1 AlphaLISA IL-6 cytokine assay (PMA-differentiated THP-1, LPS then nigericin); type: cell-based; details: differentiated THP-1 cells, 30 min pre-incubation, LPS 24 hr, nigericin 1 hour
Description: as §1, §2, §3, §4, §5, §6

[2] = Hepatocyte stability assay, mouse; type: in vitro ADME; details: 10 μM compound, 0.5×10^6 cells/mL, 60 min; for half-life at 10 μM: cryo-preserved hepatocytes, read-out: T½
From the text: as §7, §8, §9

NRF2 = NRF2 activation assay (DiscoverX PathHunter NRF2 translocation kit, U2OS cells); type: cell-based; details: for EC50: U2OS PathHunter cells, 6 hours; for Emax: U2OS
[3] = Homo sapiens, THP-1, differentiated THP-1 cells
[4] = Homo sapiens, +GSH, normalised to dimethyl fumarate high control
[5] = Homo sapiens, −GSH, normalised to dimethyl fumarate high control

Compound	IC50 (IL-1β; [3])	CIint ([1]; Human hepatocytes)	half-life at 10 μM [1]	IC50 (IL-6; Homo sapiens)	CIint ([2]; Mouse hepatocytes)	half-life at 10 μM [2]	EC50 (NRF2; Homo sapiens, +GSH)	EC50 (NRF2; Homo sapiens, −GSH)	IC50 (IL-1β; differentiated THP-1 cells)	EC50 (NRF2; −GSH)	NRF2 activation Emax, −GSH (NRF2; −GSH, normalised to dimethyl fumarate high control)	IC50 (IL-6)	T½ ([1]; Human hepatocytes)	T½ ([2]; Mouse hepatocytes)	Emax (NRF2; [4])	Emax (NRF2; [5])
C=C(CC(=O)O)C(=O)OC1CCCc2cc(C(F)(F)F)ccc21 (single isomer, unassigned) [Example 7, 3-(((6-(trifluoromethyl)-1,2,3,4-tetrahydronaphthalen-1-yl)oxy)carbonyl)but-3-enoic acid]	7.9 µM	8 μL min^−1 10^−6 cells	3.65 h	65.6 µM	11 μL min^−1 10^−6 cells	1.97 h	–	–	–	–	–	–	–	–	–	–
C=C(CC(=O)O)C(=O)OC [1-monomethyl itaconate, reference compound]	–	–	–	–	–	–	–	–	> 100 µM	30.1 µM	44%	> 100 µM	–	–	–	–
C=C(CC(=O)OCCCCCCCC)C(=O)O [4-octyl itaconate, reference compound]	–	401 μL min^−1 10^−6 cells	–	–	351 μL min^−1 10^−6 cells	–	–	–	–	–	–	–	4 min	4 min	–	–
C=C(CC(=O)O)C(=O)OC1(c2ccc(C(F)(F)F)cc2)CCC1 [Example 2, 3-((1-(4-(trifluoromethyl)phenyl)cyclobutoxy)carbonyl)but-3-enoic acid]	4.4 µM	9 μL min^−1 10^−6 cells	2.1 h	> 100 µM	<3 μL min^−1 10^−6 cells	> 7.67 h	> 100 µM	> 100 µM	–	–	–	–	–	–	14%	26%
C=C(CC(=O)O)C(=O)OC1(c2ccc(C(F)(F)F)c(F)c2)CCC1 [Example 3, 3-((1-(3-fluoro-4-(trifluoromethyl)phenyl)cyclobutoxy)carbonyl)but-3-enoic acid]	4.8 µM	<3 μL min^−1 10^−6 cells	> 7.67 h	53.7 µM	<3 μL min^−1 10^−6 cells	> 7.67 h	–	–	–	–	–	–	–	–	–	–
C=C(CC(=O)O)C(=O)OC1(c2ccc(C(F)(F)F)cn2)CCC1 [Example 5, 3-((1-(5-(trifluoromethyl)pyridin-2-yl)cyclobutoxy)carbonyl)but-3-enoic acid]	9 µM	<3 μL min^−1 10^−6 cells	> 7.67 h	> 31.6 µM	<3 μL min^−1 10^−6 cells	> 7.67 h	–	–	–	–	–	–	–	–	–	–
C=C(CC(=O)O)C(=O)OC1(c2ccc(C(F)(F)F)s2)CCC1 [Example 6, 3-((1-(5-(trifluoromethyl)thiophen-2-yl)cyclobutoxy)carbonyl)but-3-enoic acid]	9.5 µM	13 μL min^−1 10^−6 cells	2.38 h	> 100 µM	<3 μL min^−1 10^−6 cells	> 7.67 h	–	–	–	–	–	–	–	–	–	–
C=C(CC(=O)OC)C(=O)OC [dimethyl itaconate, reference compound]	> 100 µM	–	–	> 100 µM	–	–	–	–	–	–	–	–	–	–	–	–

Continued, in another order:

IC50 (IL-1β; [3])	CIint ([1]; Human hepatocytes)	half-life at 10 μM [1]	IC50 (IL-6; Homo sapiens)	CIint ([2]; Mouse hepatocytes)	half-life at 10 μM [2]	EC50 (NRF2; Homo sapiens, +GSH)	EC50 (NRF2; Homo sapiens, −GSH)	Compound	IC50 (IL-1β; differentiated THP-1 cells)	EC50 (NRF2; −GSH)	NRF2 activation Emax, −GSH (NRF2; −GSH, normalised to dimethyl fumarate high control)	IC50 (IL-6)	T½ ([1]; Human hepatocytes)	T½ ([2]; Mouse hepatocytes)	Emax (NRF2; [4])	Emax (NRF2; [5])
5.4 µM	<3 μL min^−1 10^−6 cells	> 7.67 h	54.8 µM	<3 μL min^−1 10^−6 cells	> 7.67 h	–	–	C=C(CC(=O)O)C(=O)O[C@@H](C)c1ccc(C(F)(F)F)cc1 [Example 1, (S)-3-((1-(4-(trifluoromethyl)phenyl)ethoxy)carbonyl)but-3-enoic acid]	–	–	–	–	–	–	–	–
9.2 µM	6 μL min^−1 10^−6 cells	5.23 h	> 100 µM	8 μL min^−1 10^−6 cells	3.65 h	–	–	C=C(CC(=O)O)C(=O)OC1(c2ccc(C(F)(F)F)cc2)COC1 [Example 4, 3-(((3-(4-(trifluoromethyl)phenyl)oxetan-3-yl)oxy)carbonyl)but-3-enoic acid]	–	–	–	–	–	–	–	–
7.6 µM	>460 μL min^−1 10^−6 cells	< 0.05 h	10.8 µM	>460 μL min^−1 10^−6 cells	< 0.05 h	> 100 µM	51 µM	C=C(CC(=O)OC)C(=O)OC1(c2ccc(C(F)(F)F)cc2)CCC1 [Example 8, 4-methyl 1-(1-(4-(trifluoromethyl)phenyl)cyclobutyl) 2-methylenesuccinate]	–	–	–	–	–	–	38%	51%
12.6 µM	27 μL min^−1 10^−6 cells	0.733 h	11.1 µM	449 μL min^−1 10^−6 cells	0.05 h	–	–	C=C(CC(=O)NC)C(=O)OC1(c2ccc(C(F)(F)F)cc2)CCC1 [Example 9, 1-(4-(trifluoromethyl)phenyl)cyclobutyl 4-(methylamino)-2-methylene-4-oxobutanoate]	–	–	–	–	–	–	–	–
60 µM	98 μL min^−1 10^−6 cells	0.2 h	13.8 µM	>460 μL min^−1 10^−6 cells	< 0.05 h	–	–	C=C(CC(=O)N(C)C)C(=O)OC1(c2ccc(C(F)(F)F)cc2)CCC1 [Example 10, 1-(4-(trifluoromethyl)phenyl)cyclobutyl 4-(dimethylamino)-2-methylene-4-oxobutanoate]	–	–	–	–	–	–	–	–
9.9 µM	9 μL min^−1 10^−6 cells	2.32 h	13.2 µM	162 μL min^−1 10^−6 cells	0.15 h	45.7 µM	33.1 µM	C=C(CC(N)=O)C(=O)OC1(c2ccc(C(F)(F)F)cc2)CCC1 [Example 11, 1-(4-(trifluoromethyl)phenyl)cyclobutyl 4-amino-2-methylene-4-oxobutanoate]	–	–	–	–	–	–	100%	117%
3.1 µM	59 μL min^−1 10^−6 cells	0.417 h	4 µM	138 μL min^−1 10^−6 cells	0.15 h	–	–	C=C(CC(=O)NCCN(C)C)C(=O)OC1(c2ccc(C(F)(F)F)cc2)CCC1 [Example 12, 1-(4-(trifluoromethyl)phenyl)cyclobutyl 4-((2-(dimethylamino)ethyl)amino)-2-methylene-4-oxobutanoate]	–	–	–	–	–	–	–	–
5.9 µM	114 μL min^−1 10^−6 cells	0.183 h	5.3 µM	>460 μL min^−1 10^−6 cells	< 0.05 h	–	–	C=C(CC(=O)NCc1nccn1C)C(=O)OC1(c2ccc(C(F)(F)F)cc2)CCC1 [Example 16, 1-(4-(trifluoromethyl)phenyl)cyclobutyl 4-(((1-methyl-1H-imidazol-2-yl)methyl)amino)-2-methylene-4-oxobutanoate]	–	–	–	–	–	–	–	–
15.3 µM	–	–	12.4 µM	–	–	–	–	C=C(CC(=O)NC(CO)C(N)=O)C(=O)OC1(c2ccc(C(F)(F)F)cc2)CCC1 (stereo not drawn) [Example 17, 1-(4-(trifluoromethyl)phenyl)cyclobutyl 4-((1-amino-3-hydroxy-1-oxopropan-2-yl)amino)-2-methylene-4-oxobutanoate]	–	–	–	–	–	–	–	–
